For this assay, the target named is T1, Endothelial lipase (EL) (Homo sapiens, UniProt Q9Y5X9).
T1 construct: transformed by RAGE technology (Athersys) to overexpress endogenous EL; endogenous in cells; the conditioned medium served as the enzyme source
T1 sequence (Q9Y5X9 21-500): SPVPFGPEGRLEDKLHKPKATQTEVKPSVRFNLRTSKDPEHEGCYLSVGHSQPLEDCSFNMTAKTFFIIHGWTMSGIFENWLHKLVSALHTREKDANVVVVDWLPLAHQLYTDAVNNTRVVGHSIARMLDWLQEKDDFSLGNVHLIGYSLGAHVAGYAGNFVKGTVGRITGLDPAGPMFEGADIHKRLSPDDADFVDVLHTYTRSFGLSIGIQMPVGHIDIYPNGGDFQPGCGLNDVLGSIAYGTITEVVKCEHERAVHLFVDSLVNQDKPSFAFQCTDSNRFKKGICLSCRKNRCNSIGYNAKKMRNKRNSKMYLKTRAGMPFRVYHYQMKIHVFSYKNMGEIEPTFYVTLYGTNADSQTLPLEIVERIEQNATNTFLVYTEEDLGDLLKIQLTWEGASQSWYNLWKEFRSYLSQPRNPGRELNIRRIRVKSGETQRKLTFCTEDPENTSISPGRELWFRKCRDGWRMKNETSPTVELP
As to the kind of experiment: Endothelial lipase (EL) enzymatic assay with fluorescent substrate A10070 in DMPG vesicles. Format: biochemical. As to conditions: conditioned media from HT-1080 cells overexpressing endogenous EL; 20 min preincubation at 37° C. As for the experimental part:
Endothelial lipase activity was measured using a fluorescent substrate, A10070, (Invitrogen, CA) doped into an artificial vesicle containing DMPG (Avanti Polar Lipids) as the excipient. Vesicles were prepared by combining 285 μL of 1 mM DMPG in a 1:1 mixture of MeOH and CHCl3 with 15 μL of 1 mM A10070 in a 1:1 mixture of MeOH and CHCl3. The mixture was dried under nitrogen and resuspended in 150 μL of 50 mM HEPES pH 8.0 buffer containing 100 mM NaCl and 0.2 mM EDTA. The sample was allowed to sit at rt for 15 min and then was sonicated 3×4 mins on ice with a Branson Sonicator using duty cycle 1. This preparation provides vesicles with a mole fraction of 0.05 for the FRET substrate.
The enzymatic assay was measured using white, opaque 96-well half area plates. Each well contained 60 μL of assay buffer (50 mM HEPES pH 8.0, 50 mM NaCl and 1 mM CaCl2) and 2 ul of a DMSO solution containing compound of interest. Conditioned media obtained from HT-1080 cells, which were transformed by RAGE technology (Athersys) to overexpress endogenous EL, was added and the reaction was allowed to incubate for 20 min at 37° C. with gentle agitation. The reaction was started by the addition of 20 μL of a 1:4 dilution of vesicles. The final total reaction volume was 100 μL. The reaction rates were measured on a Gemini plate reader with an excitation wavelength of 488 nm and an emission of 530 nm. Readings were taken every 20 seconds for 10 min with agitation between each reading. The slope of the linear portion of the readout was used to calculate the rate of the reaction.
The molecule `N#CC(C(=O)NCC(=O)NC1CC1)c1nc2ccc(-c3ccccc3)cc2s1` (centres unmarked) [Example 1, 2-cyano-N-(2-(cyclopropylamino)-2-oxoethyl)-2-(6-phenylbenzo[d]thiazol-2-yl)acetamide] returned an IC50 of 13 nM. `CN(C)C(=O)c1cccc(-c2ccc3nc(C(C#N)C(=O)NCC(=O)NC4CC4)sc3c2)c1` (centres unmarked) [Example 2, 3-{2-[cyano ({[(cyclopropyl-carbamoyl)methyl]carbamoyl})methyl]-1,3-benzothiazol-6-yl}-N,N-dimethyl-benzamide] yielded an IC50 of 398 nM. With `CN(C)C(=O)c1ccc(-c2ccc3nc(C(C#N)C(=O)NCC(=O)NC4CC4)sc3c2)cc1F` (centres unmarked) [Example 3, 4-{2-[cyano ({[(cyclopropyl-carbamoyl)methyl]carbamoyl})methyl]-1,3-benzothiazol-6-yl}-2-fluoro-N,N-dimethyl-benzamide] the figure was 238 nM; with `Cn1ccc(-c2ccc3nc(C(C#N)C(=O)NCC(=O)NC4CC4)sc3c2)cc1=O` (centres unmarked) [Example 4, 2-cyano-N-[(cyclopropyl-carbamoyl)methyl]-2-[6-(1-methyl-2-oxo-1,2-dihydropyridin-4-yl)-1,3-benzothiazol-2-yl] acetamide], more than 10000 nM; with `N#CC(C(=O)NCC(=O)NC1CC1)c1nc2ccc(-c3cccc(C(=O)N4CCCCC4)c3)cc2s1` (centres unmarked) [Example 5, 2-cyano-N-[(cyclopropyl-carbamoyl)methyl]-2-{6-[3-(piperidine-1-carbonyl)phenyl]-1,3-benzothiazol-2-yl}acetamide], 16 nM. Consider `N#CC(C(=O)NCC(=O)NC1CC1)c1nc2ccc(-c3ccc4c(c3)C(=O)NC4)cc2s1` (centres unmarked) [Example 6, 2-cyano-N-[(cyclopropyl-carbamoyl)methyl]-2-[6-(3-oxo-2,3-dihydro-1H-isoindol-5-yl)-1,3-benzothiazol-2-yl] acetamide], for which the IC50 stood at 259 nM. The molecule `N#CC(C(=O)NCC(=O)NC1CC1)c1nc2ccc(-c3ccc(C(=O)N4CCC4)cc3)cc2s1` (centres unmarked) [Example 7, 2-{6-[4-(azetidine-1-carbonyl)phenyl]-1,3-benzothiazol-2-yl}-2-cyano-N-[(cyclopropyl-carbamoyl)methyl] acetamide] displayed a 50% inhibitory concentration (IC50) of 15 nM.

`N#CC(C(=O)NCC(=O)NC1CC1)c1nc2ccc(-c3ccc4c(c3)CNC4=O)cc2s1` (centres unmarked) [Example 8, 2-cyano-N-[(cyclopropyl-carbamoyl)methyl]-2-[6-(1-oxo-2,3-dihydro-1H-isoindol-5-yl)-1,3-benzothiazol-2-yl]acetamide]: the IC50 was 5 nM.

For `N#CC(C(=O)NCC(=O)NC1CC1)c1nc2ccc(-c3cccc(C(N)=O)c3)cc2s1` (centres unmarked) [Example 9, 3-{2-[cyano ({[(cyclopropyl-carbamoyl)methyl]carbamoyl})methyl]-1,3-benzothiazol-6-yl} benzamide], the concentration for half-maximal inhibition (IC50) is 399 nM. `N#CC(C(=O)NCC(=O)NC1CC1)c1nc2ccc(-c3cccc(C(=O)N4CCOCC4)c3)cc2s1` (centres unmarked) [Example 10, 2-cyano-N-[(cyclopropyl-carbamoyl)methyl]-2-{6-[3-(morpholine-4-carbonyl)phenyl]-1,3-benzothiazol-2-yl]acetamide] yielded an IC50 of 18 nM. `N#CC(C(=O)NCC(=O)NC1CC1)c1nc2ccc(-c3ccc(C(N)=O)cc3)cc2s1` (centres unmarked) [Example 11, 4-{2-[cyano ({[(cyclopropyl-carbamoyl)methyl]carbamoyl})methyl]-1,3-benzothiazol-6-yl} benzamide] had a concentration for half-maximal inhibition (IC50) of 26 nM. Regarding `COCCNC(=O)c1ccc(-c2ccc3nc(C(C#N)C(=O)NCC(=O)NC4CC4)sc3c2)cc1` (centres unmarked) [Example 12, 4-{2-[cyano ({[(cyclopropyl-carbamoyl)methyl]carbamoyl})methyl]-1,3-benzothiazol-6-yl}-N-(2-methoxyethyl) benzamide], it took 16 nM to reach half-maximal inhibition (IC50). Regarding `N#CC(C(=O)NCC(=O)NC1CC1)c1nc2ccc(-c3ccc(C(=O)N4CCCCC4)cc3)cc2s1` (centres unmarked) [Example 13, 2-cyano-N-[(cyclopropyl-carbamoyl)methyl]-2-{6-[4-(piperidine-1-carbonyl)phenyl]-1,3-benzothiazol-2-yl} acetamide], inhibition was half-maximal at 11 nM (IC50). With `N#CC(C(=O)NCC(=O)NC1CC1)c1nc2ccc(-c3ccc(C(=O)N4CCOCC4)cc3)cc2s1` (centres unmarked) [Example 14, 2-cyano-N-(2-(cyclopropylamino)-2-oxoethyl)-2-(6-(4-(morpholine-4-carbonyl)phenyl)benzo[d]thiazol-2-yl)acetamide] the figure was 62 nM; with `N#CC(C(=O)NCC(=O)NC1CC1)c1nc2ccc(-c3ccc(NC(=O)OCc4ccccc4)cc3)cc2s1` (centres unmarked) [Example 15, benzyl N-(4-{2-[cyano ({[(cyclopropyl-carbamoyl)methyl]carbamoyl})methyl]-1,3-benzothiazol-6-yl}phenyl) carbamate], 1.4 nM.

The molecule `N#CC(C(=O)NCC(=O)NC1CC1)c1nc2ccc(-c3ccc(F)nc3)cc2s1` (centres unmarked) [Example 16, 2-cyano-N-[(cyclopropyl-carbamoyl)methyl]-2-[6-(6-fluoropyridin-3-yl)-1,3-benzothiazol-2-yl] acetamide] gave an IC50 of 172 nM. With `N#CC(C(=O)NCC(=O)NC1COC1)c1nc2ccc(-c3ccc(F)nc3)cc2s1` (centres unmarked) [Example 17, 2-cyano-2-[6-(6-fluoropyridin-3-yl)-1,3-benzothiazol-2-yl]-N-{[(oxetan-3-yl)carbamoyl]methyl} acetamide] the figure was 67 nM; with `N#CC(C(=O)NCC(=O)N1CCCC1)c1nc2ccc(-c3ccccc3)cc2s1` (centres unmarked) [Example 18, 2-cyano-N-[2-oxo-2-(pyrrolidin-1-yl)ethyl]-2-(6-pheny1-1,3-benzothiazol-2-yl)acetamide], 1320 nM. In turn, `CN1CCN(C(=O)c2ccc(-c3ccc4nc(C(C#N)C(=O)NCC(=O)NC5CCC5)sc4c3)cc2)CC1` (centres unmarked) [Example 19, 2-cyano-N-[(cyclobutyl-carbamoyl)methyl]-2-{6-[4-(4-methyl-piperazine-1-carbonyl)phenyl]-1,3-benzothiazol-2-yl} acetamide] registered an IC50 of 3140 nM. On to `CN1CCN(C(=O)c2ccc(-c3ccc4nc(C(C#N)C(=O)NCC(=O)NC5CC5)sc4c3)cc2)CC1` (centres unmarked) [Example 20, 2-cyano-N-[(cyclopropyl-carbamoyl)methyl]-2-{6-[4-(4-methyl-piperazine-1-carbonyl)phenyl]-1,3-benzothiazol-2-yl} acetamide], for which the IC50 was 130 nM. As to `N#CC(C(=O)NCC(=O)NC1CC1)c1nc2ncc(-c3ccccc3)cc2s1` (centres unmarked) [Example 21, 2-cyano-N-(2-(cyclopropylamino)-2-oxoethyl)-2-(6-phenylthiazolo[4,5-b]pyridin-2-yl)acetamide], the IC50 turned out to be 13 nM. `N#CC(C(=O)NCC(=O)NC1CC1)c1nc2ncc(-c3cccc(C(=O)N4CCOCC4)c3)cc2s1` (centres unmarked) [Example 22, 2-cyano-N-[(cyclopropyl-carbamoyl)methyl]-2-{6-[3-(morpholine-4-carbonyl)phenyl]-[1,3]thiazolo[4,5-b]pyridin-2-yl}acetamide] displayed an IC50 of 22 nM. With `CN1CCN(C(=O)c2ccc(-c3cnc4nc(C(C#N)C(=O)NCC(=O)NC5CC5)sc4c3)cc2)CC1` (centres unmarked) [Example 23, 2-cyano-N-[(cyclopropyl-carbamoyl)methyl]-2-{6-[4-(4-methylpiperazine-1-carbonyl)phenyl]-[1,3]thiazolo[4,5-6]pyridin-2-yl}acetamide] the figure was 33 nM. In turn, `N#CC(C(=O)NCC(=O)NC1CC1)c1nc2ncc(-c3ccc(C(N)=O)cc3)cc2s1` (centres unmarked) [Example 24, 4-{2-[cyano({[(cyclopropyl-carbamoyl)methyl]carbamoyl})methyl]-[1,3]thiazolo[4,5-b]pyridin-6-yl}benzamide] displayed a half-inhibitory concentration (IC50) of 31 nM.

Turning to `COCCNC(=O)c1ccc(-c2cnc3nc(C(C#N)C(=O)NCC(=O)NC4CC4)sc3c2)cc1` (centres unmarked) [Example 25, 4-{2-[cyano({[(cyclopropyl-carbamoyl)methyl]carbamoyl})methyl]-[1,3]thiazolo[4,5-b]pyridin-6-yl}-N-(2-methoxyethyl) benzamide], the IC50 stood at 40 nM.

Regarding `N#CC(C(=O)NCC(=O)NC1CC1)c1nc2cc(-c3cccc(C(N)=O)c3)c(F)cc2s1` (centres unmarked) [Example 26, 3-{2-[cyano({[(cyclopropylcarbamoyl)methyl]carbamoyl})methyl]-6-fluoro-1,3-benzothiazol-5-yl}benzamide], half-maximal inhibition (IC50) required 21 nM.

Broadly, the IC50 is the point on the concentration scale where inhibition reaches its midpoint. Low readings indicate greater potency, high ones weaker potency.

The values above are taken from patent US10597370B2, “2-(benzothiazol-2-yl)-2-cyano-acetamide derivatives and their use as endothelial lipase inhibitors” (BRISTOL-MYERS SQUIBB COMPANY, priority 2016, dated 2020).
